Assays:
Assay type in all cases: toxicity, cell-based
[1] = system: U2OS; assay: Incucyte cell viability with U2OS; conditions: human, 10 µM, compound concentration 10 uM
[2] = system: HEK-293T; assay: Incucyte cell viability with HEK293T; conditions: human, 10 µM, compound concentration 10 uM
[3] = system: Fibroblast; assay: Incucyte cell viability with human fibroblast; conditions: 10 µM, compound concentration 10 uM
Further: unitless GR value; below 1 slowed growth and below 0 cell loss.

| Structure (SMILES) | Growth Rate ([1]; 0 h, replicate number 1) | Growth Rate ([1]; 6 h, replicate number 1) | Growth Rate ([1]; 12 h, replicate number 1) | Growth Rate ([1]; 12 h, replicate number 2) | Growth Rate ([1]; 18 h, replicate number 1) | Growth Rate ([1]; 18 h, replicate number 2) | Growth Rate ([1]; 24 h, replicate number 1) | Growth Rate ([1]; 24 h, replicate number 2) | Growth Rate ([2]; 6 h, replicate number 1) | Growth Rate ([2]; 6 h, replicate number 2) | Growth Rate ([2]; 12 h, replicate number 2) | Growth Rate ([2]; 18 h, replicate number 1) | Growth Rate ([2]; 18 h, replicate number 2) | Growth Rate ([2]; 24 h, replicate number 1) | Growth Rate ([2]; 24 h, replicate number 2) | Growth Rate ([3]; 6 h, replicate number 1) | Growth Rate ([3]; 6 h, replicate number 2) | Growth Rate ([3]; 12 h, replicate number 2) | Growth Rate ([3]; 24 h, replicate number 2) | Growth Rate ([1]; 6 h, replicate number 2) | further results |
| --- | --- | --- | --- | --- | --- | --- | --- | --- | --- | --- | --- | --- | --- | --- | --- | --- | --- | --- | --- | --- | --- |
| Cc1c[nH]c(-c2cnc(NCCNc3ccc(C#N)cn3)nc2-c2ccc(Cl)cc2Cl)n1 [LADUVIGLUSIB] | 0.54 | 0.47 | 0.48 | 0.87 | 0.83 | 0.93 | 0.56 | 0.99 | 0.35 | 0.14 | 0.43 | 0.58 | 0.7 | 0.71 | 0.75 | 0.56 | 0.81 | -0.19 | -0.28 | – | Growth Rate ([2]; 0 h, replicate number 1): 0.82; Growth Rate ([2]; 0 h, replicate number 2): 0.92; Growth Rate ([2]; 12 h, replicate number 1): 0.49; Growth Rate ([3]; 12 h, replicate number 1): -0.47; Growth Rate ([3]; 18 h, replicate number 1): -0.4; Growth Rate ([3]; 18 h, replicate number 2): -0.3; Growth Rate ([3]; 24 h, replicate number 1): -0.33 |
| CNC(=O)c1ccc2c(c1)NC(=O)/C2=C(\Nc1ccc(CN2CCCCC2)cc1)c1ccccc1.Cl.O | -1 | – | 0.94 | – | 0.82 | – | 0.89 | – | – | 0.72 | – | – | 0.71 | 1 | 0.54 | – | – | – | 0.78 | – | Growth Rate ([3]; 0 h, replicate number 1): -1 |
| CN(C)CCCN1c2ccccc2Sc2ccc(Cl)cc21.Cl [CHLORPROMAZINE HYDROCHLORIDE] | -0.42 | – | 0.42 | 0.12 | 0.77 | 0.33 | 0.91 | 0.39 | 0.64 | 0.48 | 0.52 | 0.18 | 0.37 | 0.15 | 0.19 | -0.57 | – | – | – | -0.06 | Growth Rate ([1]; 0 h, replicate number 2): -0.21; Growth Rate ([2]; 0 h, replicate number 2): -0.89; Growth Rate ([2]; 12 h, replicate number 1): 0.66; Growth Rate ([3]; 0 h, replicate number 2): 0.33; Growth Rate ([3]; 12 h, replicate number 1): -0.38; Growth Rate ([3]; 18 h, replicate number 1): -0.35; Growth Rate ([3]; 24 h, replicate number 1): -0.22 |
| CC(C)c1nc2c(c3c1[C@@H](c1ccc(C(F)(F)F)cc1)OC31CCOCC1)[C@@H](O)CC(C)(C)C2.Cl | – | 0.88 | – | 0.78 | – | 0.78 | – | 0.87 | – | 0.11 | 0.61 | 0.63 | 0.97 | 0.78 | 0.8 | -0.53 | – | 0.76 | 0.96 | – | Growth Rate ([2]; 0 h, replicate number 1): 0.12; Growth Rate ([2]; 12 h, replicate number 1): 0.73; Growth Rate ([3]; 0 h, replicate number 1): -1; Growth Rate ([3]; 12 h, replicate number 1): -0.05; Growth Rate ([3]; 18 h, replicate number 1): 0.15; Growth Rate ([3]; 24 h, replicate number 1): 0.49 |
| Nc1ncnc2c1c(COc1cccc(Cl)c1)nn2C1CCOCC1 | – | 0.51 | 0.63 | – | 0.81 | – | 0.83 | – | 0.75 | 0.59 | 0.61 | 0.83 | 0.5 | 0.79 | 0.37 | 0.82 | 0.47 | 0.6 | 0.92 | – | Growth Rate ([3]; 0 h, replicate number 2): -0.61; Growth Rate ([3]; 12 h, replicate number 1): 0.9; Growth Rate ([3]; 18 h, replicate number 2): 0.74 |
| COc1c(NC(=O)c2cc3cccc(Oc4ccnc(C(=O)N5CCN(C)CC5)c4)c3n2C)cc(C(C)(C)C)cc1NS(C)(=O)=O | -0.03 | 0.82 | 0.79 | 0.69 | 0.83 | 0.7 | 0.84 | 0.69 | 0.93 | 0.57 | 0.77 | – | 0.93 | – | – | 0.02 | 0.43 | 0.98 | – | 0.58 | Growth Rate ([1]; 0 h, replicate number 2): 0.57; Growth Rate ([2]; 0 h, replicate number 1): 0.87; Growth Rate ([2]; 0 h, replicate number 2): -0.84 |
| COc1cccc(-c2c(C)c(Cc3c(F)cccc3C(F)(F)F)c3n(c2=O)[C@@H]([C@@H](N)c2ccccc2)CS3)c1F | 0.81 | 0.48 | 0.52 | 0.75 | 0.62 | 0.91 | 0.37 | 0.93 | – | – | 0.52 | 0.72 | 0.5 | 0.6 | 0.46 | 0.51 | -0.66 | 0.73 | 0.87 | 0.4 | Growth Rate ([1]; 0 h, replicate number 2): -0.8; Growth Rate ([2]; 0 h, replicate number 2): -0.28; Growth Rate ([3]; 0 h, replicate number 1): -1; Growth Rate ([3]; 18 h, replicate number 1): 0.92; Growth Rate ([3]; 24 h, replicate number 1): 0.83 |
| Cc1c(N2CCNCC2)nc2ccc(Br)cc2c1C(=O)NC[C@H](CCC(=O)O)c1ccccc1Cl [BAY-403] | -0.04 | 0.58 | 0.84 | – | 0.91 | – | 0.95 | – | 0.58 | 0.8 | 0.81 | 0.76 | 0.9 | 0.88 | – | – | 0.04 | 0.12 | 0.7 | 0.52 | Growth Rate ([2]; 0 h, replicate number 2): -0.32; Growth Rate ([3]; 0 h, replicate number 1): 0.47; Growth Rate ([3]; 0 h, replicate number 2): 0.9; Growth Rate ([3]; 18 h, replicate number 2): 0.51 |
| Cc1cc([N+](=O)[O-])c(NS(=O)(=O)c2cccc(C(=O)O)c2)cc1-c1cccnc1 [ALOFANIB] | -0.35 | 0.68 | 0.39 | 0.55 | 0.93 | 0.64 | – | 0.6 | – | 0.57 | 0.68 | 0.65 | 0.78 | 0.75 | 0.79 | 0.27 | 0.26 | 0.74 | 0.92 | 0.28 | Growth Rate ([1]; 0 h, replicate number 2): 0.06; Growth Rate ([2]; 0 h, replicate number 1): -0.38; Growth Rate ([2]; 12 h, replicate number 1): 0.91; Growth Rate ([3]; 0 h, replicate number 2): 0.25; Growth Rate ([3]; 12 h, replicate number 1): 0.56; Growth Rate ([3]; 18 h, replicate number 1): 0.5; Growth Rate ([3]; 18 h, replicate number 2): 0.99; Growth Rate ([3]; 24 h, replicate number 1): 0.8 |
| Cc1ccc(NC(=O)c2ccc3cnccc3c2)cc1C(=O)Nc1cnc(Nc2cccc(NC3CCN(C(=O)/C=C/CN(C)C)CC3)c2)nc1 | – | -0.26 | 0.17 | 0.68 | 0.33 | 0.49 | 0.27 | 0.46 | -0.97 | -0.98 | -0.77 | -0.65 | -0.56 | -0.54 | -0.39 | – | -1 | -0.71 | -0.3 | 0.51 | Growth Rate ([1]; 0 h, replicate number 2): -0.97; Growth Rate ([2]; 12 h, replicate number 1): -0.87; Growth Rate ([3]; 0 h, replicate number 1): 0.35; Growth Rate ([3]; 0 h, replicate number 2): -0.14; Growth Rate ([3]; 12 h, replicate number 1): -0.99; Growth Rate ([3]; 18 h, replicate number 1): -0.78; Growth Rate ([3]; 18 h, replicate number 2): -0.42; Growth Rate ([3]; 24 h, replicate number 1): -0.28 |
| COc1cc(NC(=O)c2ccc(-c3ccc(Cl)cc3)o2)cc(OC)c1 | 0.66 | – | – | 0.72 | – | 0.89 | 0.98 | 0.79 | 0.31 | – | – | – | – | – | – | – | -1 | 0.03 | 0.45 | 0.2 | Growth Rate ([2]; 0 h, replicate number 2): 0.52; Growth Rate ([3]; 0 h, replicate number 1): 0.51; Growth Rate ([3]; 18 h, replicate number 1): 0.5; Growth Rate ([3]; 18 h, replicate number 2): 0.54 |
| O=C([O-])c1cc2cc(Cc3cccnc3)ccc2o1.[Na+] | -0.13 | 0.77 | 0.4 | 0.98 | 1 | – | 0.71 | – | 0.1 | 0.83 | – | – | – | – | – | 0.42 | – | 0.64 | – | – | Growth Rate ([2]; 0 h, replicate number 2): 0.2; Growth Rate ([2]; 12 h, replicate number 1): 0.56 |
| CC(=O)c1c(C)c2cnc(Nc3ccc(N4CCN(CCCCNC(=O)COc5cccc6c5C(=O)N(C5CCC(=O)NC5=O)C6=O)CC4)cn3)nc2n(C2CCCC2)c1=O (stereo not drawn) | – | – | 0.99 | – | – | – | 1 | – | 0.75 | – | 0.85 | 0.85 | 0.98 | 0.91 | – | 0.72 | – | – | – | 0.97 | Growth Rate ([1]; 0 h, replicate number 2): 0.65; Growth Rate ([2]; 12 h, replicate number 1): 0.82; Growth Rate ([3]; 0 h, replicate number 2): 0.14; Growth Rate ([3]; 24 h, replicate number 1): 0.88 |

Reference: ChEMBL document CHEMBL5303304, “EUbOPEN Chemogenomics Library - IncuCyte” (2023)
